These results are taken from patent EP4438030A1, “TERNARY ANTI-SPOT COMBINATION TO LIGHTEN SKIN” (E Grau Active Cosmetics, S.L.U., priority 2023, dated 2024).

For this test, the system named is Normal human epidermal melanocytes. The following applies: melanocytes irradiated with ultraviolet light (2.5 J/cm2), 96 hours; mixture 0.0003% hydroxytyrosol, 0.00001% maslinic acid, 0.001% vitamin C (w/w); hydroquinone 10-8% (w/w).

Method: Normal human epidermal melanocytes were cultured in 48-well plates at a density of 2×10^4 cells/well overnight in a CO2 incubator at 37°C in the culture medium called Melanocyte Growth Medium (PromoCell, R.F.A.). The culture medium was then removed and replaced with fresh medium, and the cells were cultured for 96 hours in the presence of a mixture containing 0.0003% (w/w) of hydroxytyrosol, 0.00001% (w/w) of maslinic acid and 0.001% (w/w) of vitamin C. […] To mimic exposure to sunlight, the cells were irradiated with ultraviolet light for the last 48 hours in 4 cycles lasting 15 minutes. Irradiation measurements indicated a total dose of 2.5 J/cm2. Melanin was extracted by adding 1 M sodium hydroxide and incubating at 60°C for 1 h.
In parallel, a cell viability assay was carried out using 3-(4,5-dimethylthiazol-2-yl)-2,5-diphenyltetrazolium bromide dye (MTT Assay) to normalise melanin values to cell levels and thus correct possible interferences due to small variations in the number of cells in each well.

In the case of `Oc1ccc(O)cc1` [hydroquinone], the “reduction of melanin production” value was 42%.
